Measured values published in patent publication US5223515A, “Injectable solution containing a pyridyl methylsulfinylbenzimidazole” (Takeda Chemical Industries, Ltd., priority 1988, dated 1993).
Converted amounts (≈) assume the structure as drawn.

What was measured:
[1] = Example 2 / Table 2: stability of Compound (I-1) in the solution state (2 mg/ml, mixed solvents); type: physicochemical
Method: Ethanol, polyethylene glycol 400, propylene glycol and water were mixed at the composition ratios as shown in Table 2 illustrated below, and 2 mg of Compound (I-1) was dissolved in 1 ml each of the resulting solvents, respectively, followed by adjustment to pH 9.0 with 5N-aqueous sodium hydroxide solution. As a control, there were prepared a suspension of 2 mg of Compound (I-1) in 1 ml of water being adjusted to pH 9.0 with 5N-aqueous sodium hydroxide solution and an aqueous solution of 2 mg of Compound (I-1) in 1 ml of 0.01N aqueous sodium hydroxide solution.

[2] = Stability of Compound (I-1) in aqueous solution; type: physicochemical
[3] = Solubility of Compound (I-1) in water at different pH; type: physicochemical
[4] = Example 3 / Table 3: stability of Compound (I-1) in the solution state (5 mg/ml, mixed solvents); type: physicochemical
Method: Ethanol, polyethylene glycol 400, propylene glycol and water were mixed at the composition ratios as shown in Table 3 illustrated below, and 5-mg of Compound (I-1) was dissolved in 1 ml each of the resulting solvents, respectively, followed by adjustment to pH 9.0 with 5N-aqueous sodium hydroxide solution. As a control, there were prepared a suspension of 5 mg of Compound (I-1) in 1 ml of water being adjusted to pH 9.0 with 5N-aqueous sodium hydroxide solution and an aqueous solution of 5 mg of Compound (I-1) in 1 ml of 0.02N aqueous sodium hydroxide solution. […] (A control of the suspension was not subjected to sterile-filtration).
These test specimens as filled into ampoules were investigated for each item of appearance, pH and clarity immediately after preparation and after storage at 25° C.

[5] = Example 1 / Table 1: stability of Compound (I-1) in the solution state (ethanol, propylene glycol); settings: for Content: HPLC
Excerpt: Note, *As measured by use of highperformance liquid chromatography (HPLC)
chromatographic conditions of HPLC:
Carrier; Nucleosil 5 C18 (supplied by GasChro Kogyo K.K. of Japan)
Solvent; Methanol:water:triethylamine (60:40:1, pH 7)
Detection method; UV spectrophotometry at 285 nm

[6] = Example 4 / Table 4: stability of lyophilized Compound (I-1) after being dissolved in vials; type: physicochemical; settings: for Solubility: lyophilized powder
Method: A 1000 mg quantity of Compound (I-1) was dispersed in distilled water for
injection, and 3 ml of 1N-aqueous sodium hydroxide solution was added to
dissolve the Compound (I-1), followed by addition of water to make up the
total of 50 ml and sterile filtration by the conventional method. The
resulting filtrate was filled in 1 ml portions into vials of a 12 cm^3
capacity, followed by lyophilization by means of the conventional
technique. The lyophilized powder as contained in vials was dissolved in
in Solvent A (which was composed of 50 mg of N-methylglucamine, 0.27 ml of
1N-hydrochloric acid and 2 ml of propylene glycol being admixed with
ethanol to make up the total of 4 ml), Solvent B (which was composed of 50
mg of N-methylglucamine, 0.27 ml of 1N-hydrochloric acid, 1.2 ml of
polyethylene glycol 400 and 1.2 ml of ethanol being admixed with distilled
water for injection to make up the total of 4 ml), Solvent C (which was
composed of 50 mg of N-methylglucamine, 0.27 ml of 1N-hydrochloric acid,
1.2 ml of ethanol and 1.2 ml of propylene glycol being admixed with
distilled water for injection to make up the total of 4 ml and Solvent D
(which was composed of 50 mg of N-methylglucamine, 0.27 ml of
1N-hydrochloric acid and 2.5 ml of polyethylene glycol 400 bing admixed
with distilled water for injection to make up the total of 4 ml),
respectively, to perform inspection for their solubilities as well as to
conduct investigation into appearance, clarity and contents immediately
after dissolution and after storage at 25° C. for 24 hours.

[7] = control: 2 mg in 0.01 N aq. sodium hydroxide 1 ml, after preparation
[8] = control: 2 mg in 0.01 N aq. sodium hydroxide 1 ml, after storage at 25° C./24 hrs.
[9] = 5 mg, PEG-400 0.3 ml, ethanol 0.3 ml, water 0.4 ml, after preparation
[10] = 5 mg, PEG-400 0.4 ml, water 0.6 ml, after preparation
[11] = 5 mg, ethanol 0.3 ml, propylene glycol 0.3 ml, water 0.4 ml, after preparation
[12] = 5 mg, ethanol 0.6 ml, water, after preparation
[13] = control: 5 mg in 0.02 N aq. sodium hydroxide 1 ml, after preparation
[14] = control: 5 mg in 0.02 N aq. sodium hydroxide 1 ml, after storage at 25° C./24 hrs.
[15] = 2 mg in ethanol 1 ml, after preparation
[16] = 2 mg in ethanol 1 ml, after storage at 25° C./24 hrs.
[17] = 2 mg in propylene glycol 1 ml, after preparation
[18] = 2 mg in propylene glycol 1 ml, after storage at 25° C./24 hrs.
[19] = Solvent A, after storage at 25° C. for 24 hrs.
[20] = Solvent B, after storage at 25° C. for 24 hrs.
[21] = Solvent C, after storage at 25° C. for 24 hrs.
[22] = Solvent D, after storage at 25° C. for 24 hrs.
[23] = Solvents A-D, after storage for 24 hours

SMILES: Cc1c(OCC(F)(F)F)ccnc1C[S+]([O-])c1nc2ccccc2[nH]1 (centres unmarked) [Compound (I-1), 2-(3-methyl-4-trifluoroethoxy-2-pyridyl)methylsulfinylbenzimidazole]
- Appearance ([1]; 2 mg, PEG-400 0.05 ml, ethanol 0.35 ml, water 0.6 ml, after preparation): Colorless
- pH ([1]; 2 mg, PEG-400 0.05 ml, ethanol 0.35 ml, water 0.6 ml, after preparation (adjusted)): 9.0
- Content ([1]; 2 mg, PEG-400 0.05 ml, ethanol 0.35 ml, water 0.6 ml, after preparation (taken as 100.0%)): 100.0%
- Content ([1]; 2 mg, PEG-400 0.05 ml, ethanol 0.35 ml, water 0.6 ml, after storage at 25° C./24 hrs.): 98.0%
- Appearance ([1]; 2 mg, PEG-400 0.05 ml, propylene glycol 0.35 ml, water 0.6 ml, after preparation): Colorless
- pH ([1]; 2 mg, PEG-400 0.05 ml, propylene glycol 0.35 ml, water 0.6 ml, after preparation (adjusted)): 9.0
- Content ([1]; 2 mg, PEG-400 0.05 ml, propylene glycol 0.35 ml, water 0.6 ml, after preparation (taken as 100.0%)): 100.0%
- Content ([1]; 2 mg, PEG-400 0.05 ml, propylene glycol 0.35 ml, water 0.6 ml, after storage at 25° C./24 hrs.): 94.4%
- Appearance ([1]; 2 mg, PEG-400 0.4 ml, water 0.6 ml, after preparation): Colorless
- pH ([1]; 2 mg, PEG-400 0.4 ml, water 0.6 ml, after preparation (adjusted)): 9.0
- Content ([1]; 2 mg, PEG-400 0.4 ml, water 0.6 ml, after preparation (taken as 100.0%)): 100.0%
- Content ([1]; 2 mg, PEG-400 0.4 ml, water 0.6 ml, after storage at 25° C./24 hrs.): 91.8%
- Appearance ([1]; 2 mg, ethanol 0.5 ml, propylene glycol 0.5 ml, after preparation): Colorless
- pH ([1]; 2 mg, ethanol 0.5 ml, propylene glycol 0.5 ml, after preparation (adjusted)): 9.0
- Content ([1]; 2 mg, ethanol 0.5 ml, propylene glycol 0.5 ml, after preparation (taken as 100.0%)): 100.0%
- Content ([1]; 2 mg, ethanol 0.5 ml, propylene glycol 0.5 ml, after storage at 25° C./24 hrs.): 98.0%
- dissolution of control specimens ([1]; control in water adjusted to same pH as other test specimens, 2 mg/ml): failed to allow adequate dissolution
- pH needed to secure dissolution of control specimens ([1]; control, 2 mg/ml): not less than 11
- Appearance [1, 7]: Colorless
- pH [1, 7]: 11.4
- Content ([1]; control: 2 mg in 0.01 N aq. sodium hydroxide 1 ml, after preparation (taken as 100.0%)): 100.0%
- Appearance [1, 8]: Colorless
- Content [1, 8]: 92.5%
- pH ([1]; control: 2 mg in water 1 ml, after preparation (adjusted)): 9.1
- stability in an aqueous solution ([2]; alkaline solution): satisfactorily stable
- appearance of aqueous solution ([2]; neutral to acidic range, short period of time): dark purple
- stability in an aqueous solution ([2]; pH decreased to the neutral to acidic range): less stable
- Solubility ([3]; pH 11, water): 1 mg/mL (≈ 2.71 mM)
- Solubility ([3]; pH 13, water): 33 mg/mL (≈ 89.3 mM)
- Appearance [4, 9]: Colorless
- Clarity [4, 9]: Clear
- pH ([4]; 5 mg, PEG-400 0.3 ml, ethanol 0.3 ml, water 0.4 ml, after preparation (adjusted)): 9.0
- Clarity ([4]; 5 mg, PEG-400 0.3 ml, ethanol 0.3 ml, water 0.4 ml, after storage at 25° C./24 hrs.): Clear
- Appearance [4, 10]: Colorless
- Clarity [4, 10]: Clear
- pH ([4]; 5 mg, PEG-400 0.4 ml, water 0.6 ml, after preparation (adjusted)): 9.0
- Clarity ([4]; 5 mg, PEG-400 0.4 ml, water 0.6 ml, after storage at 25° C./24 hrs.): Clear
- Appearance [4, 11]: Colorless
- Clarity [4, 11]: Clear
- pH ([4]; 5 mg, ethanol 0.3 ml, propylene glycol 0.3 ml, water 0.4 ml, after preparation (adjusted)): 9.0
- Clarity ([4]; 5 mg, ethanol 0.3 ml, propylene glycol 0.3 ml, water 0.4 ml, after storage at 25° C./24 hrs.): Clear
- Appearance [4, 12]: Colorless
- Clarity [4, 12]: Clear
- pH ([4]; 5 mg, ethanol 0.6 ml, water, after preparation (adjusted)): 9.0
- Clarity ([4]; 5 mg, ethanol 0.6 ml, water, after storage at 25° C./24 hrs.): Clear
- dissolution of control specimens ([4]; control in water adjusted to same pH as other test specimens, 5 mg/ml): failed to allow adequate dissolution
- pH needed to secure dissolution of control specimens ([4]; control, 5 mg/ml): not less than 11
- Appearance [4, 13]: Colorless
- Clarity [4, 13]: Clear
- pH [4, 13]: 11.6
- Appearance [4, 14]: Colorless
- Clarity [4, 14]: Clear
- pH ([4]; control: 5 mg in water 1 ml, after preparation (adjusted)): 8.9
- Appearance [5, 15]: Colorless
- Clarity [5, 15]: Clear
- Content ([5]; 2 mg in ethanol 1 ml, after preparation (taken as 100.0%)): 100.0%
- Appearance [5, 16]: Yellowish
- Clarity [5, 16]: Clear
- Content [5, 16]: 99.2%
- Appearance [5, 17]: Colorless
- Clarity [5, 17]: Clear
- Appearance [5, 18]: Light red-purple
- Clarity [5, 18]: Clear
- change in appearance ([5]; ethanol and propylene glycol, after storage at 25° C. for 24 hours): slight change
- pH after dissolution ([6]; Solvent A): 8.7
- Appearance ([6]; Solvent A, after dissolution): Colorless
- Clarity ([6]; Solvent A, after dissolution): Clear
- Content ([6]; Solvent A, after dissolution (taken as 100%)): 100%
- Clarity [6, 19]: Clear
- Content [6, 19]: 97.0%
- pH after dissolution ([6]; Solvent B): 9.0
- Appearance ([6]; Solvent B, after dissolution): Colorless
- Clarity ([6]; Solvent B, after dissolution): Clear
- Content ([6]; Solvent B, after dissolution (taken as 100%)): 100%
- Clarity [6, 20]: Clear
- Content [6, 20]: 96.5%
- pH after dissolution ([6]; Solvent C): 9.0
- Appearance ([6]; Solvent C, after dissolution): Colorless
- Clarity ([6]; Solvent C, after dissolution): Clear
- Content ([6]; Solvent C, after dissolution (taken as 100%)): 100%
- Clarity [6, 21]: Clear
- Content [6, 21]: 96.7%
- pH after dissolution ([6]; Solvent D): 9.0
- Appearance ([6]; Solvent D, after dissolution): Colorless
- Clarity ([6]; Solvent D, after dissolution): Clear
- Content ([6]; Solvent D, after dissolution (taken as 100%)): 100%
- Clarity [6, 22]: Clear
- Content [6, 22]: 96.1%
- Appearance ([6]; Solvents A, B, C, D (one spanning entry), after storage at 25° C. for 24 hrs.): Slightly to lightly green-yellow
- change in content [6, 23]: decrease slightly
- change in the clarity [6, 23]: no change
- changes in appearance ([6]; Solvents A-D, immediately after dissolution and after storage for 24 hours): slight changes
- dissolution of lyophilized powder ([6]; all of these solvents (A-D)): dissolved quickly
- solubilities of lyophilized powder ([6]; all of these solvents (A-D)): excellent solubilities
- Solubility ([6]; Solvent A (propylene glycol/ethanol)): Good
- Solubility ([6]; Solvent B (PEG 400/ethanol/water)): Good
- Solubility ([6]; Solvent C (ethanol/propylene glycol/water)): Good
- Solubility ([6]; Solvent D (PEG 400/water)): Good
